Data set [1] deals with mouse NIH/3T3 dermal fibroblast cells. Kind of data set: Cytotoxicity/proliferation assay (CCK-8) NIH/3T3. The conditions noted are these: TGF-β1 stimulated NIH/3T3, over 72 h. The format is cell-based. The procedure:
HFL1 cells were cultured in Kaighn’s modified Ham’s F-12 (F-12K) medium (Sigma-Aldrich) containing NaHCO3 and HEPES buffered to pH 7. Cells were grown to confluence in T75 culture flasks in the presence of 10% fetal bovine serum (FBS; Gibco, Thermo Fisher Scientific, Waltham, MA, USA). HFL1 cells were subcultured using 0.05% trypsin at a ratio of 1:3. NIH/3T3 cells were cultured in Dulbecco’s Modified Eagle Medium (DMEM; HyClone, Thermo Fisher Scientific) containing 100 U/mL penicillin and 100 μg/mL streptomycin. Cells were grown to confluence in T75 culture flasks in the presence of 10% FBS. NIH/3T3 cells were subcultured using 0.05% trypsin/EDTA at a ratio of 1:3. All cells were maintained at 37 °C and 5% CO2, and growth medium was replenished every 3 days until experimentation. Cells were growth-arrested in serum-free medium for 48 h before experiments, and all experiments were performed under serum-free conditions using cells between passages 3 and 8.
Cells were seeded into 12-well culture plates at a density of 2.5 × 10^4 and when cultures reached 50% confluence, the culture medium was replaced with fresh serum-free F12K or serum-free DMEM/F12 for 48 h (growth arrest). […] Absorbance was measured at 450 nm wavelength using a Bio-Rad optical plate reader.

Data set [2] concerns Ltbp1 mRNA in NIH/3T3 fibroblasts. Kind of data set: qRT-PCR Ltbp1 mRNA. The format is cell-based, mouse. The conditions noted are these: 48 h, TGF-β1 10 ng/mL. The procedure: Reverse transcription (RT) and real-time quantitative PCR (qRT-PCR) were used to assess ACTA2/Acta2, Col1a1, Col3a1, Fn1, Eda-Fn1, Mmp9, Tgfb1, Ltbp1, Hic5, and Mrtfa mRNA expressions. Custom PCR primers were designed in-house (Table 2) and then synthesized by BGI (Beijing, China). Cells were grown in 6-well culture plates and washed with phosphate buffered saline (PBS) before lysis with TRIzon Reagent (CWBio, Beijing, China) and total RNA purification according to the manufacturer’s protocol. Reverse transcription was carried using the TransScript First-Strand cDNA Synthesis SuperMix kit according to the manufacturer’s protocol (TransGen, Beijing, China), using the random primer method for the initiation of cDNA synthesis. Nuclease-free H2O replaced the RNA sample to serve as a negative control for the reverse transcription reaction. For qRT-PCR, 10 µL 2× TransStart Top Green qPCR SuperMix was added to each well of a 96-well PCR plate containing 0.4 µL forward primer, 0.4 µL reverse primer, […], and nuclease-free water to a total volume of 20 µL. The qRT-PCR reaction was completed using a CFX96 Real-Time PCR Detection System (Bio-Rad Laboratories, Hercules, CA, USA). Amplification used the following parameters: 94 °C for 30 s, followed by 40 cycles of 94 °C for 5 s, 55 °C for 15 s, 72 °C for 10 s, and then a dissociation stage (melt-curve). […]

For data set [3], the system named is NIH/3T3 fibroblasts, collagen gel contraction. Kind of data set: Collagen gel contraction assay. The format is cell-based, mouse. The conditions noted are these: TGF-β1 10 ng/mL + AF38Pep 10 µg/mL vs TGF-β1 alone. The procedure:
Approximately 2 × 10^4/mL NIH/3T3 fibroblasts were added to a solution containing 3 mg/mL rat tail collagen type I (BD Biosciences, San Diego, CA, USA), 260 mM NaHCO3, 200 mM HEPES and 50 mM NaOH. To each well of a 24-well cell culture plate, 500 µL of collagen-cell solution was added and allowed to polymerize at 37 °C for 1 h. The gels were carefully detached from the well walls before resuspension of gels in 1% FBS-DMEM and maintained at 37 °C, in a 5% CO2 atmosphere for 24 h. The DMEM medium was removed and replaced with serum-free DMEM medium with or without 10 ng/mL TGF-β1 and/or 10 µg/mL AF38Pep. Gels were photographed and measured at days 0, 1, 2, 4, and 6 after treatment. The average contraction values were obtained using ImageJ v1.37c (NIH, Bethesda, MD, USA) and are expressed as a percentage of contraction versus the initial gel diameter at 0 days.

Bridges are numbered along the chain shown (N, C = ends). Where no end group is shown, it is not given here.

Take “VMPYISTTPAKPCTSENCGNSWYGGFKSKNENKIYFIN (disulfide 13-18 (inferred)) [AF38Pep]”: in data set [1], the cytotoxicity/proliferation result is given as “did not interfere with cell proliferation nor incur cell death”. Further, in data set [2], the “LTBP1 mRNA expression” value is “attenuated”. For the same sequence, the collagen gel contraction result in data set [3] (96 h) is “significantly delayed collagen gel contraction”; in data set [3] (144 h) it was “maintained a significant difference in contraction”.

The values are drawn from publication PMC7913925, “Design and Evaluation of a Polypeptide That Mimics the Integrin Binding Site for EDA Fibronectin to Block Profibrotic Cell Activity” (International Journal of Molecular Sciences, 2021).
